Data published in paper PMC6312236, “Functional characterization reveals that zebrafish CFTR prefers to occupy closed channel conformations” (PLoS ONE, 2018).

Assays:
Assay in all cases: inside-out patch clamp, macroscopic current
Type in all cases: biochemical
[1] = biological target: T1, WT-nzCFTR (native form of zebrafish CFTR) (Danio rerio, UniProt Q1LX78); conditions: 10 μM inhibitor, PKA-phosphorylated channel, pH 7.4, 22-24 °C
T1 construct: full-length wild type, native (not codon-optimized) cDNA from M. Bagnat lab, co-transfected with peGFP-C3 in CHO cells; PKA-phosphorylated in patches
T1 sequence (Q1LX78 1-1485): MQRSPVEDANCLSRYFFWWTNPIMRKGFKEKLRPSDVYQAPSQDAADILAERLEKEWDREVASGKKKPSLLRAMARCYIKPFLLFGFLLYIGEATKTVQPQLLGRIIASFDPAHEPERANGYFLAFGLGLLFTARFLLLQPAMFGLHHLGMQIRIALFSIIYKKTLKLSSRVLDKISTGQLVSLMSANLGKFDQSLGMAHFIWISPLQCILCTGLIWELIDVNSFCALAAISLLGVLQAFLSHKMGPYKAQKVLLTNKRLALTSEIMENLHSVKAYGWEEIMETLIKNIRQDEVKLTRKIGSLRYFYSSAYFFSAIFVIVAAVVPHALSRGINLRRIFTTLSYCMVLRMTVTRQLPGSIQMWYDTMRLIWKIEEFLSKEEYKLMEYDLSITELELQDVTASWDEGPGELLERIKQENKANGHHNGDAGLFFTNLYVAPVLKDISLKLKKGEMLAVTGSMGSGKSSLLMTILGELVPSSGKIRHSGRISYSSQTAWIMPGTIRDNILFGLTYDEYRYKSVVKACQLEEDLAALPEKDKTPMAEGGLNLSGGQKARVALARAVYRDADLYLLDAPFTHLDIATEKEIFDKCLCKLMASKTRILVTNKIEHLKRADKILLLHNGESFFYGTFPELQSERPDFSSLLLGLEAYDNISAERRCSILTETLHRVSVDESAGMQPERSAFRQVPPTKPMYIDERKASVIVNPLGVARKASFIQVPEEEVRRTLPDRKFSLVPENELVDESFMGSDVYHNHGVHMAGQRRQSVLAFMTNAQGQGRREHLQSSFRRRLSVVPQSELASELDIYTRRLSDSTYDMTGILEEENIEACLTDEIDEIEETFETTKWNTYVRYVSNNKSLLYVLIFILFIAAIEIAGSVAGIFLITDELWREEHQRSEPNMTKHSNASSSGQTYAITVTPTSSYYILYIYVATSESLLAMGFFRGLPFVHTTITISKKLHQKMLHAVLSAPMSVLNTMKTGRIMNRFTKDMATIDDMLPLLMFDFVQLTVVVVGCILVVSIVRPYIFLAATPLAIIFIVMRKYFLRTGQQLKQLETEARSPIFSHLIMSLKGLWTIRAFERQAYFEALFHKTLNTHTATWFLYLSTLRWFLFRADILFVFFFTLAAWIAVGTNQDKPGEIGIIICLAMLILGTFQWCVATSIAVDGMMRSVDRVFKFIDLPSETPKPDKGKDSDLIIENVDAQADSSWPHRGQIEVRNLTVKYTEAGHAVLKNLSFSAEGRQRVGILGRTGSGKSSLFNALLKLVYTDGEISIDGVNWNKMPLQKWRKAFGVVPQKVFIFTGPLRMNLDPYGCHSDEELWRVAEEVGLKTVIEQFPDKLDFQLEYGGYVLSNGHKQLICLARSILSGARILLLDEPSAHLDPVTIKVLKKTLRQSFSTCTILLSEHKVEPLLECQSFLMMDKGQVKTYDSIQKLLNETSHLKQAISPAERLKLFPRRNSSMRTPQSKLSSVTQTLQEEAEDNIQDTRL

[2] = biological target: T2, WT-zCFTR (codon optimized zebrafish CFTR) (Danio rerio, UniProt Q1LX78); conditions: 10 μM inhibitor, PKA-phosphorylated channel, pH 7.4, 22-24 °C
T2 construct: full-length wild type, codon-optimized cDNA (from J. Chen), co-transfected with peGFP-C3 in CHO cells; PKA-phosphorylated in patches
T2 sequence (Q1LX78 1-1485): T1 sequence (Q1LX78 1-1485)

[3] = biological target: T2, WT-zCFTR (codon optimized zebrafish CFTR); conditions: 50 μM P-ATP relative to 2 mM ATP, PKA-phosphorylated channel, pH 7.4

SMILES	inhibition ratio at 10 μM [1]	inhibition ratio at 10 μM [2]	IP-ATP/IATP [3]
O=C(O)c1ccc(/C=C2\SC(=S)N(c3cccc(C(F)(F)F)c3)C2=O)cc1 [CFTRinh-172]	0.30 ± 0.04	0.27 ± 0.03	–
O=P(O)(O)OP(=O)(O)OP(=O)(O)OC[C@H]1O[C@@H](n2cnc3c(NCCc4ccccc4)ncnc32)[C@H](O)[C@@H]1O [N6‐Phenylethyl‐ATP]	–	–	0.88 ± 0.04
